Reference: patent publication US10376593B2, “Glycoconjugates and their use as potential vaccines against infection by Shigella flexneri” (INSTITUT PASTEUR, priority 2012, dated 2019)

target: mIgG A22-4′ (anti-S. flexneri serotype 6 LPS monoclonal antibody) binding to SF6 LPS; experiment: Inhibition ELISA: binding of mIgG A22-4′ to synthetic oligosaccharides (inhibition of mIgG binding to SF6 LPS); design: species or system mouse; conditions: concentration of oligosaccharide required to inhibit 50% of mIgG A22-4′ (0.025 μg/ml) binding to purified SF6 LPS (strain Sc544); oligosaccharides tested as propyl glycoside; max 2.5 mM; ≤ = inferior to but close to the value
Experimental: 2) ELISA for IC50 Measurements
The binding of the available mIgG A22-4′ to the synthetic oligosaccharides was measured as previously described (Phalipon A. et al (J. Immunol. 176 1686 (2006)). Briefly, the mIgG concentration to be used was defined in the first step. To do so, a standard curve was established for mIgG A22-4′. The mIgG was incubated at different concentrations, overnight at 4° C., on microtiter plates coated with SF6 LPS purified from the strain SF6 Sc544 at a concentration of […] in a carbonate buffer (pH 9.6), then with PBS-BSA 1% for 30 min at 4° C. After washing with PBS-Tween 20 (0.05%), alkaline phosphatase conjugated anti-mouse IgG was added at a dilution of 1/5,000 (Sigma-Aldrich) for 1 h at 37° C. After washing with PBS-Tween 20 (0.05%), the substrate was added (12 mg of p-nitrophenyl phosphate in 1.2 mL of 1 M Tris-HCl buffer (pH 8.8) and 10.8 mL of 5 M NaCl). Once the color developed, the plate was read at 405 nm Dynatech MR400 microplate reader). A standard curve OD=f([Ab]) was fitted to the quadratic equation Y=aX2+bX+c, where Y is the OD and X is the Ab concentration. A correlation factor (r^2) of 0.99 was routinely obtained. The mIgG A22-4′ concentration to be used in the second step for measuring the IC50, which is defined as the concentration of oligosaccharides required to inhibit 50% of mIgG binding to LPS, was chosen as follows. It corresponds to the minimal concentration of mAb which gives the maximal OD on the standard curve.
The maximum concentration tested was 2.5 mM for all oligosaccharides. Then, measurement of unbound mIgG was performed as described above using microtiter plates coated with purified SF6 LPS. The mAb concentration was deduced from the standard curve. A 100% unbound mIgG concentration was defined for the mAb incubated in the same conditions but without any oligosaccharide. […]
The binding of mIgG A22-4′ to the synthetic and oligo- or polysaccharides was evaluated in inhibition ELISA (Table B)

Q: For `CCCO[C@@H]1O[C@H](CO)[C@H](O)[C@H](O[C@@H]2O[C@H](C(=O)O)[C@H](O[C@@H]3O[C@@H](C)[C@H](O)[C@@H](O)[C@H]3O[C@@H]3O[C@@H](C)[C@H](O)[C@@H](OC(C)=O)[C@H]3O)[C@H](O)[C@H]2O)[C@H]1NC(C)=O` [AcCDAB, Propyl 3-O-acetyl-α-L-rhamnopyranosyl-(1→2)-α-L-rhamnopyranosyl-(1→4)-β-D-galactopyranosyluronic acid-(1→3)-2-acetamido-2-deoxy-β-D-galactopyranoside], which IC50 is on record?
A: The IC50 was 36 µM.

Q: `CCCO[C@@H]1O[C@@H](C)[C@H](O)[C@@H](OC(C)=O)[C@H]1O[C@@H]1O[C@H](CO)[C@H](O)[C@H](O[C@@H]2O[C@H](C(=O)O)[C@H](O[C@@H]3O[C@@H](C)[C@H](O)[C@@H](O)[C@H]3O[C@@H]3O[C@@H](C)[C@H](O)[C@@H](OC(C)=O)[C@H]3O)[C@H](O)[C@H]2O)[C@H]1NC(C)=O` [AcCDABAcC, Propyl 3-O-acetyl-α-L-rhamnopyranosyl-(1→2)-α-L-rhamnopyranosyl-(1→4)-β-D-galactopyranosyluronic acid-(1→3)-2-acetamido-2-deoxy-β-D-galactopyranosyl-(1→2)-3-O-acetyl-α-L-rhamnopyranoside] was tested. Which IC50 did it give?
A: Its IC50 is ≤ 500 µM.

Q: With `CCCO[C@@H]1O[C@H](CO)[C@H](O)[C@H](O[C@@H]2O[C@H](C(=O)O)[C@H](O[C@@H]3O[C@@H](C)[C@H](O)[C@@H](O)[C@H]3O[C@@H]3O[C@@H](C)[C@H](O)[C@@H](O)[C@H]3O)[C@H](O)[C@H]2O)[C@H]1NC(C)=O` [CDAB, Propyl α-L-rhamnopyranosyl-(1→2)-α-L-rhamnopyranosyl-(1→4)-β-D-galactopyranosyluronic acid-(1→3)-2-acetamido-2-deoxy-β-D-galactopyranoside] as the molecule, how does the IC50 read?
A: Its IC50 is 16 µM.
